US9687539B2, “CD4+ T survivin epitopes and uses thereof” (Commissariat a I'Energie Atomique, priority 2005, dated 2017)
No end group written: not given here.

What was measured:
HLA-DP401 (DP*0401) = target: T1, HLA-DP401 (DP*0401) (Homo sapiens, UniProt P04440+P20036); assay: biochemical; conditions: competition with biotinylated tracer; 3 independent experiments; read-out: Binding activity DP401 (IC50)
T1 sequence (P04440 30-258): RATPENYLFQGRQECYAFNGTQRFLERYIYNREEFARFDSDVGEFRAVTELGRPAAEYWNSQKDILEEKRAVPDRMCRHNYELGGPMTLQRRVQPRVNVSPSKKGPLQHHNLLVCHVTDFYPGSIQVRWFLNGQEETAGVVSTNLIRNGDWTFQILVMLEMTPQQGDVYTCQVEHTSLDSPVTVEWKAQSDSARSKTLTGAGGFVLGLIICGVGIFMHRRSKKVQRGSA
T1 sequence (P20036 29-260): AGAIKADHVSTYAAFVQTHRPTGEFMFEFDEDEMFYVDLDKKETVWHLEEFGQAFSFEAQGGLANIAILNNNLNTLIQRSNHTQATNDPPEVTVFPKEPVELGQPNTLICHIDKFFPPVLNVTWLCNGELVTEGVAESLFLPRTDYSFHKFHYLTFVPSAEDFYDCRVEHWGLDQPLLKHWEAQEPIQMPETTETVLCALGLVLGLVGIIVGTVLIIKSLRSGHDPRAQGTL

HLA-DR7 (DRB1*0701) = HLA-DR7 (DRB1*0701) (Homo sapiens, UniProt P01903+P01911, A100R/A102G/A103Q/D57E/D86V/E43K/F76Y/K127E/L162R/M171V/P40G/Q125H/Q99D/R33Q/R42Y/R54Q/S133A/S66F/T210M/V115G/Y107V/Y59L/Y89S); assay: biochemical; conditions: competition with biotinylated tracer; 3 independent experiments; read-out: Binding activity DR7 (IC50)
[1] = test system: survivin-specific CD4+ T lymphocyte lines; assay: Response of CD4+ T lymphocyte lines to decreasing doses of peptide, IFN-γ ELISPOT; assay type: cell-based, human; conditions: 10^−5 to 10^−10 M peptide, autologous PBMCs; donors 174 and 188
Protocol: FIG. 4 illustrates the response of the survivin-specific CD4+ T lymphocyte lines to decreasing doses of peptide. Survivin-specific CD4+ T lymphocyte lines were obtained from PBMCs from two normal donors (174 and 188). The lines were incubated with decreasing concentrations (10^−5 to 10^−10 M) of peptide 17-31 (▴), 90-104 (▪), 93-107 (▪), 96-110 (Δ) or 128-142 (□), in the presence of 10^5 autologous PBMCs. The CD4+ T lymphocyte response was measured by IFN-γ ELISPOT.
The anti-IFN-γ human monoclonal antibody 1-D1K (MABTECH), diluted to 10 μg/ml in PBS buffer, was adsorbed onto nitrocellulose plates (Multiscreen HA; Millipore) for 1 hour at 37° C. The plates were subsequently washed with PBS and then saturated with complete IMDM medium (100 μl/well), for 1 h at 37° C. […] The immunoenzymatic revelation was stopped after approximately 10 minutes by thorough rinsing of the plates in water, and the colored spots were counted using an automatic reader (ELISPOT reader system, AID). […]
Finally, the sensitivity of the peptide recognition by the T lymphocytes was evaluated, in the presence of decreasing doses of peptide (FIG. 4). […]

“LTLGEFLKLDRERAK [peptide 96-110, L T L G E F L K L D R E R A K]” gave an IC50 (HLA-DP401 (DP*0401)) of 2910 nM.
“HRISTFKNWPFLEGC [peptide 17-31, H R I S T F K N W P F L E G C]” was tested, and the IC50 (HLA-DR7 (DRB1*0701)) was 18 nM and the “Peptide concentration at which CD4+ T lymphocyte lines are stimulated” value [1] was 10^−10 M.
